The values below come from patent US20050074463A1, “Therapeutic vaccination method, mutated peptides of hiv reverse transciptase and their use for vaccination and diagnostic purposes” (Universite Pierre et Marie Curie-paris VI, priority 2001, published 2005).

Test [1] concerns gamma-IFN-producing CD8 cells in PBMCs from patient 201#5. The experiment in a line: ELISpot-γIFN assay, ex vivo recognition of epitope peptides by PBMCs. The settings on record: PBMCs from patient 201#5 treated with NRTIs and carrying RT mutation 41 (M>L), no prior stimulation.
Test [2] has as its target Wild-type peptide 33-41 of HIV-1 reverse transcriptase (HIV-1).
In test [3] the target is Mutated peptide 33-41 of HIV-1 reverse transcriptase (mutation 41 M>L) (HIV-1).

ALVEICTEL [mutated peptide 33-41]: the “frequency of recognition (cells secreting γIFN), SFC/10^6 PBMCs” value in test [1] is 95 SFC/10^6 PBMCs.
Take ALVEICTEM [wild-type peptide 33-41]: in test [1], the “frequency of recognition (cells secreting γIFN), SFC/10^6 PBMCs” value is on record as 3 SFC/10^6 PBMCs.
For “PBMCs from patient 201#5 (cells without a defined receptor)”, the results for the SFC/10^6 PBMCs (ELISpot gamma-IFN) (SFC/10^6 PBMCs) in test [2] and in test [3] were 3 and 95, respectively.
